Article PMC12586182 (Frontiers in Oncology, 2025)
pIC50: −log10 of the molar value.

What was measured:
Assay in all cases: Cell viability assay (ATPlite)
Format in all cases: cell-based
11-18 = conditions: Homo sapiens; 11-18 cell line, 72 hours incubation
Protocol: (§1) Intracellular ATP content was used as an indirect readout of cell number using the ATPlite 1Step bioluminescence assay (Revvity, Groningen, the Netherlands). Cells were seeded in 384-well plates at an optimized density to ensure unrestricted growth and maximal signal at the end of the experiment. After 24 hours of incubation, the starting cell number was determined by adding ATPlite to each well of a control plate and recording luminescence on an Envision multimode reader (Revvity, Waltham, MA, USA) ([4]). Compounds were diluted in DMSO in √10-fold steps from 10 mmol/L stocks to obtain 9-point dilution series. After further 31.6-fold dilution in 20 mmol/L HEPES (pH 7.4), the dilution series were added in duplicate to the cells in the 384-well plates to determine the effect of the compounds on cell viability. Vehicle-treated controls were included to determine maximal cell proliferation. The final DMSO concentration was 0.4% (v/v) in all wells. After incubation for an additional 72 hours, the ATP content was measured in each well using ATPlite. The luminescent signal in inhibitor-treated wells was normalized to vehicle-treated control wells to determine the percentage viability at each concentration. Cell doublings were determined by relating the cell number of vehicle-treated controls to the starting cell number for each cell line. The viability assay of a cell line was repeated when the cell doubling deviated > 2-fold from the historic doubling as determined by multiple independent experiments. The quality of the complete assay was determined by a parallel test with doxorubicin on two cell lines. IC50 values were calculated by fitting a four-parameter logistic model to the percentage viability values using IDBS XLfit5 (IDBS, Guildford, United Kingdom). All curves were visually inspected and submitted to an F-test as implemented in IDBS XLfit5. Curves with an F-value above 1.5 were invalidated and IC50 values were maximized at the highest concentration.

5637 = conditions: Homo sapiens; 5637 cell line, 72 hours incubation
Protocol: as §1

A-498 = conditions: Homo sapiens, A498; A-498 cell line, 72 hours incubation
Protocol: as §1

A-673 = conditions: Homo sapiens, A673; A-673 cell line, 72 hours incubation
Protocol: as §1

AU565 = conditions: Homo sapiens; AU565 cell line, 72 hours incubation
Protocol: as §1

BxPC-3 = conditions: Homo sapiens; BxPC-3 cell line, 72 hours incubation
Protocol: as §1

CAL-27 = conditions: Homo sapiens; CAL-27 cell line, 72 hours incubation
Protocol: as §1

CCRF-HSB-2 = conditions: Homo sapiens; CCRF-HSB-2 cell line, 72 hours incubation
Protocol: as §1

COLO 205 = conditions: Homo sapiens; COLO 205 cell line, 72 hours incubation
Protocol: as §1

DB = conditions: Homo sapiens; DB cell line, 72 hours incubation
Protocol: as §1

DEL = conditions: Homo sapiens; DEL cell line, 72 hours incubation
Protocol: as §1

ES-2 = conditions: Homo sapiens; ES-2 cell line, 72 hours incubation
Protocol: as §1

HL-60 = conditions: Homo sapiens; HL-60 cell line, 72 hours incubation
Protocol: as §1

Hs 852.T = conditions: Homo sapiens; Hs 852.T cell line, 72 hours incubation
Protocol: as §1

J82 = conditions: Homo sapiens; J82 cell line, 72 hours incubation
Protocol: as §1

JM-1 = conditions: Homo sapiens, JM1; JM-1 cell line, 72 hours incubation
Protocol: as §1

K-562 = conditions: Homo sapiens, K562; K-562 cell line, 72 hours incubation
Protocol: as §1

Kasumi-1 = conditions: Homo sapiens; Kasumi-1 cell line, 72 hours incubation
Protocol: as §1

MM1.R = conditions: Homo sapiens, MM.1R; MM1.R cell line, 72 hours incubation
Protocol: as §1

MOLT-4 = conditions: Homo sapiens; MOLT-4 cell line, 72 hours incubation
Protocol: as §1

MSTO-211H = conditions: Homo sapiens; MSTO-211H cell line, 72 hours incubation
Protocol: as §1

NCI-H2172 = conditions: Homo sapiens; NCI-H2172 cell line, 72 hours incubation
Protocol: as §1

NCI-H460 = conditions: Homo sapiens; NCI-H460 cell line, 72 hours incubation
Protocol: as §1

Rh30 = conditions: Homo sapiens; Rh30 cell line, 72 hours incubation
Protocol: as §1

SNU-16 = conditions: Homo sapiens; SNU-16 cell line, 72 hours incubation
Protocol: as §1

SW872 = conditions: Homo sapiens; SW872 cell line, 72 hours incubation
Protocol: as §1

SW900 = conditions: Homo sapiens; SW900 cell line, 72 hours incubation
Protocol: as §1

SW982 = conditions: Homo sapiens; SW982 cell line, 72 hours incubation
Protocol: as §1

TOV-21G = conditions: Homo sapiens, TOV21G; TOV-21G cell line, 72 hours incubation
Protocol: as §1

U-118MG = conditions: Homo sapiens; U-118MG cell line, 72 hours incubation
Protocol: as §1

UWB1.289 = conditions: Homo sapiens, UWB1289; UWB1.289 cell line, 72 hours incubation
Protocol: as §1

`O=C(c1ccc(Oc2ccccc2)cc1Cl)c1c[nH]c2ncnc(N[C@@H]3CC[C@@H](CO)OC3)c12` [nemtabrutinib] showed a pIC50 (11-18) of 5.58, a pIC50 5637 of 5.46 and a pIC50 (A-498) of 5.19. For the same compound, the pIC50 (A-673) was 5.44, the pIC50 (AU565) was 5.49 and the pIC50 (BxPC-3) was 5.58. The pIC50 (CAL-27) was 5.89, the pIC50 (CCRF-HSB-2) was 6.43 and the pIC50 (COLO 205) was 6.18. For the same compound, the pIC50 (DB) was 4.76, the pIC50 (DEL) was 4.81 and the pIC50 (ES-2) was 6.03. It also gave a pIC50 (HL-60) of 5.66, a pIC50 (Hs 852.T) of 5.40 and a pIC50 (J82) of 5.10. The pIC50 (JM-1) was 4.62, the pIC50 (K-562) was 5.59 and the pIC50 (Kasumi-1) was 5.85. It also gave a pIC50 (MM1.R) of 5.08, a pIC50 (MOLT-4) of 5.16 and a pIC50 (MSTO-211H) of 5.41. It also gave a pIC50 (NCI-H2172) of 6.35, a pIC50 (NCI-H460) of 5.24 and a pIC50 (Rh30) of 5.26. It also gave a pIC50 (SNU-16) of 5.74, a pIC50 (SW872) of 6.18 and a pIC50 (SW900) of 5.64. It also gave a pIC50 (SW982) of 4.97, a pIC50 (TOV-21G) of 5.42 and a pIC50 (U-118MG) of 4.89. For the same compound, the pIC50 (UWB1.289) was 5.60.
